{"source": "ChEMBL document CHEMBL5104149", "about": "“Monoterpene substituted thiazolidin-4-ones as novel TDP1 inhibitors: Synthesis, biological evaluation and docking” (Bioorg Med Chem Lett, 2022)", "key": {"[1]": {"target": "Tyrosyl-DNA phosphodiesterase 1 (Homo sapiens, UniProt Q9NUW8)", "sequence (Q9NUW8 whole entry)": "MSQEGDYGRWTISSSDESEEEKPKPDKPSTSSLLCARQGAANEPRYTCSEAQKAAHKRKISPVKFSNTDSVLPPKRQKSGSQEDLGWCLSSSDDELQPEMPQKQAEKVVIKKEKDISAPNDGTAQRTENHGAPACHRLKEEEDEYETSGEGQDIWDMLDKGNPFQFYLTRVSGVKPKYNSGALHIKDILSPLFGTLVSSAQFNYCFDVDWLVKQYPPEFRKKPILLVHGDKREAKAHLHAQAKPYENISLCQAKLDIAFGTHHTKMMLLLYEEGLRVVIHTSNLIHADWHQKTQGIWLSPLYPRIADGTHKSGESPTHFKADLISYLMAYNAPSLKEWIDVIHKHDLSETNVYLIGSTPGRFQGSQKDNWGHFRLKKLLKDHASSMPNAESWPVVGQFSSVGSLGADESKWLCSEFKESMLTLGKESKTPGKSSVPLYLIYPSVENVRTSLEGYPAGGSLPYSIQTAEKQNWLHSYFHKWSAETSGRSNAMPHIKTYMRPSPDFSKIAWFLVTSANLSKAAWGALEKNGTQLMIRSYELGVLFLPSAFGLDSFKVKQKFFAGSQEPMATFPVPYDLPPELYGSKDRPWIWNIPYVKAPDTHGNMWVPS", "assay": "Inhibition of recombinant human TDP1 measured by real-time oligonucleotide biosensor assay"}, "[2]": {"assay": "Cytotoxicity against human HeLa cells", "assay_type": "toxicity, cell-based"}, "[3]": {"assay": "Cytotoxicity against human HEK293-A cells", "assay_type": "toxicity, cell-based"}, "HeLa [4]": {"test_system": "HeLa", "assay": "Cytotoxicity against human HeLa cells at 10 uM in presence of 2 to 16 uM topotecan", "assay_type": "functional, cell-based"}, "HeLa [5]": {"test_system": "HeLa", "assay": "Synergistic cytotoxicity against human HeLa cells assessed as combination index at 20 uM in presence of 5 uM topotecan", "assay_type": "functional"}, "HeLa [6]": {"test_system": "HeLa", "assay": "Synergistic cytotoxicity against human HeLa cells assessed as combination index at 5 uM in presence of 5 uM topotecan", "assay_type": "functional"}}, "note": "Active and inactive are the calls of the source. No cut-off for these calls is given here.", "data": [{"smiles": "COc1cnc2c(c1)C(=O)c1c-2n(CCCNC2=NCCS2)c(=O)c2cc([N+](=O)[O-])ccc12", "values": [{"measurement": "IC50", "setting": "[1]", "value": 12, "unit": "µM"}]}, {"smiles": "CC(C)=CCCC(C)CCOc1ccc(C2SCC(=O)N2Cc2ccccc2)cc1", "note": "(stereo not drawn)", "values": [{"measurement": "IC50", "setting": "[1]", "value": "> 100", "unit": "µM"}]}, {"smiles": "O=C1CSC(c2ccccc2)N1Cc1ccccc1", "note": "(stereo not drawn)", "values": [{"measurement": "IC50", "setting": "[1]", "value": "> 100", "unit": "µM"}]}, {"smiles": "CC(=O)C1=C(O)C=C2Oc3c(-c4csc(N/N=C/CC(C)CCC=C(C)C)n4)c(O)c(C)c(O)c3[C@@]2(C)C1=O", "note": "(stereo partly drawn)", "values": [{"measurement": "IC50", "setting": "[1]", "value": 0.016, "unit": "µM"}]}, {"smiles": "CC1(C)C2CC=C(COc3ccc(C4SCC(=O)N4Cc4ccccc4)cc3)C1C2", "note": "(stereo not drawn)", "values": [{"measurement": "IC50", "setting": "[1]", "value": 1.6, "unit": "µM"}, {"measurement": "CC50", "setting": "[2]", "value": 74, "unit": "µM"}, {"measurement": "CC50", "setting": "[3]", "value": 51, "unit": "µM"}, {"measurement": "Activity", "setting": "HeLa [4]", "value": "Active"}, {"measurement": "CI", "setting": "HeLa [5]", "value": 0.21}]}, {"smiles": "CC(C)CCCC(C)CCOc1ccc(C2SCC(=O)N2Cc2ccccc2)cc1", "note": "(stereo not drawn)", "values": [{"measurement": "IC50", "setting": "[1]", "value": 1.2, "unit": "µM"}, {"measurement": "CC50", "setting": "[2]", "value": 66, "unit": "µM"}, {"measurement": "CC50", "setting": "[3]", "value": "> 100", "unit": "µM"}, {"measurement": "Activity", "setting": "HeLa [4]", "value": "Active"}, {"measurement": "CI", "setting": "HeLa [6]", "value": 0.51}, {"measurement": "CI", "setting": "HeLa [5]", "value": 0.29}]}, {"smiles": "CC(C)=CCCC(C)CC1SCC(=O)N1Cc1ccccc1", "note": "(stereo not drawn)", "values": [{"measurement": "IC50", "setting": "[1]", "value": "> 100", "unit": "µM"}]}, {"smiles": "CC(C)CCCC(C)CC1SCC(=O)N1Cc1ccccc1", "note": "(stereo not drawn)", "values": [{"measurement": "IC50", "setting": "[1]", "value": "> 100", "unit": "µM"}]}, {"smiles": "CC(C)=CCC/C(C)=C/COc1ccc(C2SCC(=O)N2Cc2ccccc2)cc1", "note": "(stereo not drawn)", "values": [{"measurement": "IC50", "setting": "[1]", "value": 2.9, "unit": "µM"}, {"measurement": "CC50", "setting": "[2]", "value": "> 100", "unit": "µM"}, {"measurement": "CC50", "setting": "[3]", "value": "> 100", "unit": "µM"}, {"measurement": "Activity", "setting": "HeLa [4]", "value": "Active"}, {"measurement": "CI", "setting": "HeLa [5]", "value": 0.13}]}, {"smiles": "COc1ccc(C2SCC(=O)N2Cc2ccccc2)cc1", "note": "(stereo not drawn)", "values": [{"measurement": "IC50", "setting": "[1]", "value": "> 100", "unit": "µM"}]}, {"smiles": "CC1(C)C2CC=C(C3SCC(=O)N3Cc3ccccc3)C1C2", "note": "(stereo not drawn)", "values": [{"measurement": "IC50", "setting": "[1]", "value": "> 100", "unit": "µM"}]}, {"smiles": "CC1=CC[C@@H](CCOc2ccc(C3SCC(=O)N3Cc3ccccc3)cc2)C1(C)C", "note": "(stereo partly drawn)", "values": [{"measurement": "IC50", "setting": "[1]", "value": 1.2, "unit": "µM"}, {"measurement": "CC50", "setting": "[2]", "value": 79, "unit": "µM"}, {"measurement": "CC50", "setting": "[3]", "value": 90, "unit": "µM"}, {"measurement": "Activity", "setting": "HeLa [4]", "value": "Active"}, {"measurement": "CI", "setting": "HeLa [6]", "value": 0.25}, {"measurement": "CI", "setting": "HeLa [5]", "value": 0.16}]}, {"smiles": "CC1(C)C2CC=C(CC3SCC(=O)N3Cc3ccccc3)C1C2", "note": "(stereo not drawn)", "values": [{"measurement": "IC50", "setting": "[1]", "value": "> 100", "unit": "µM"}]}, {"smiles": "CC1=CC[C@@H](CC2SCC(=O)N2Cc2ccccc2)C1(C)C", "note": "(stereo partly drawn)", "values": [{"measurement": "IC50", "setting": "[1]", "value": "> 100", "unit": "µM"}]}, {"smiles": "CC1(C)C2CC=C(CCOc3ccc(C4SCC(=O)N4Cc4ccccc4)cc3)C1C2", "note": "(stereo not drawn)", "values": [{"measurement": "IC50", "setting": "[1]", "value": 2.1, "unit": "µM"}, {"measurement": "CC50", "setting": "[2]", "value": "> 100", "unit": "µM"}, {"measurement": "CC50", "setting": "[3]", "value": "> 100", "unit": "µM"}, {"measurement": "Activity", "setting": "HeLa [4]", "value": "Active"}, {"measurement": "CI", "setting": "HeLa [6]", "value": 0.32}, {"measurement": "CI", "setting": "HeLa [5]", "value": 0.21}]}]}
